From patent publication US20240001012A1, “SOLUTIONS FOR […] OF A DRUG AD[…] […] AND DOSING ALGORITHM THEREFOR” (DREXEL UNIVERSITY, priority 2017, published 2024)

Legend:
[1] = system: Streptococcus pneumoniae; test: Follow-up cultures in patient 4 on vancomycin via CRRT; type: in vivo, human; conditions: vancomycin continued 2 days
Excerpt: (§1) Only two patients, patients 4 and 9, had cultures that were positive for a gram-positive organism. […] Subsequent cultures obtained from the blood and the respiratory system were negative. The isolate of Streptococcus pneumoniae was penicillin sensitive, and the patient was changed to ampicillin for the remainder of the treatment course.

[2] = Stability of vancomycin with components of the CRRT solution; type: physicochemical; conditions: in CRRT solution
Excerpt: The CRRT or like solution may be prepared at the time it is needed following current standard operating procedures for sterile product compounding or as discussed below in greater detail. The amount of vancomycin, for instance, to be added to the solution is described below in greater detail. Accordingly, this mixed solution is provided for being infused for the duration it is prescribed for CRRT. […] Other drugs may be stable for less or more time.

[3] = Serum vancomycin plateau level in patients receiving continuous infusion vancomycin mixed in the CRRT solution; type: in vivo, human
Experimental: According to embodiments disclosed herein, drug concentrations in the solution(s) are adjusted in vitro based on an initial serum plateau level, and subsequent levels are thereafter obtained based on these changes. […] See step 70.
In this study, CRRT was performed using a Prismaflex System machine (Gambro, Lakewood, CO). The mode of dialysis, continuous venovenous hemofiltration or hemodiafiltration was dictated by an attending nephrologist prescribing the dialysis. The
(§2) Prismaflex machine was initially primed with two 1-L bags of normal saline and 5,000 units of heparin. The machine was then primed with normal saline, 5% albumin, or a blood exchange (blood is transfused to the patient as the prime is wasted) depending on the percent extracorporeal volume of the patient with a dialysis solution utilizing HF1000, AN69 dialysis filters. Commercially available dialysate and replacement solutions were used for all CRRT patients. The CRRT circuit and solutions were inspected and observed for adverse events, such as specifically for precipitation and clotting. The CRRT solution(s) and circuit were visually inspected after addition of the CRRT circuit prior to the final connection to the patient.
The median eGFR on ICU admission was 39.9 mL/min/1.73 m 2 (25th to 75th IQR, 25.8-53.4 mL/min/1.73 m 2) compared with a median eGFR of 26.7 mL/min/1.73 m 2 (25th to 75th IQR, 18.8-42.7 mL/min/1.73 m 2) with the initiation of CRRT.

[4] = system: methicillin-sensitive Staphylococcus aureus; test: Follow-up cultures in patient 9 on vancomycin via CRRT; type: in vivo, human; conditions: day 6 of vancomycin therapy, blood culture also negative
Excerpt: as §1

[5] = escalation in CRRT intensity from hemofiltration to hemodiafiltration; Joy et al. 1998; cited from earlier work
[6] = Inspection of CRRT solution(s) and circuit for precipitation and clotting after mixing vancomycin; conditions: on mixing the vancomycin in the CRRT solution
Excerpt: Upon initiation of CRRT, the CRRT circuit may be inspected and evaluated on an hourly basis according to current standards of care. A part of the hourly standard of care inspection may involve inspection of the CRRT solution for precipitation and crystallization. This assessment should continue for the period of time the patient is receiving CRRT and vancomycin or other antibiotics is mixed in the CRRT solution.
as §2

For `CN[C@H](CC(C)C)C(=O)N[C@H]1C(=O)N[C@@H](CC(N)=O)C(=O)N[C@H]2C(=O)N[C@H]3C(=O)N[C@H](C(=O)N[C@H](C(=O)O)c4cc(O)cc(O)c4-c4cc3ccc4O)[C@H](O)c3ccc(c(Cl)c3)Oc3cc2cc(c3O[C@@H]2O[C@H](CO)[C@@H](O)[C@H](O)[C@H]2O[C@H]2C[C@](C)(N)[C@H](O)[C@H](C)O2)Oc2ccc(cc2Cl)[C@H]1O` [Vancomycin, vancomycin], the “subsequent cultures from blood and respiratory system” value [1] was “negative”, the “stable with components of the CRRT solution” value [2] was “at least 96 hours” and the “median (25th to 75th IQR) vancomycin serum plateau concentration” value ([3]; 11 patients, median solution concentration 25 mg/L) was 21.8 (20.9-25). The “Vancomycin Level, IQR, 25” value ([3]; all levels of 11 patients) was 20.9 µg/mL, the “Vancomycin Level, IQR, 75” value ([3]; all levels of 11 patients) was 25 µg/mL and the “Vancomycin Level, Min” value ([3]; all levels of 11 patients) was 12.9 µg/mL. The “Vancomycin Level, Mean” value ([3]; all levels of 11 patients, mean CRRT solution concentration 26.5 μg/mL) was 22.3 µg/mL, the “Vancomycin Level, Median” value ([3]; all levels of 11 patients, median CRRT solution concentration 25 μg/mL) was 21.8 µg/mL and the “attainment of therapeutic vancomycin serum plateau levels” value ([3]; all patients, regardless of CRRT modality, dose and flow rate) was “all patients achieved therapeutic vancomycin serum plateau levels”. For the same compound, the concentration at 8 h ([3]; human, serum, other: continuous infusion mixed in the CRRT solution, the one patient below 15 mg/L at 8 hours) was 12900 ng/mL, the “therapeutic serum level after adjustment of the CRRT solution concentration” value ([3]; same patient, within 16 hours of starting CRRT) was 23.5 mg/L and the “patients achieving a therapeutic serum vancomycin level within 8 hours” value ([3]; ten of eleven patients, within 8 hours of starting mixing vancomycin into the CRRT solution, target 15-30 mg/L) was 91%. The repeat respiratory culture [4] was “negative”, the “increase in vancomycin clearance” value [5] was “greater than or equal to 30%” and the “adverse events regarding precipitation of vancomycin with CRRT solution(s) or circuit” value [6] was “no adverse events were observed”.
